Molecular target: Cytochrome P450 3A4 (Homo sapiens, UniProt P08684)
Assay: CYP Inhibition Assay
Excerpt: The final concentrations of DMSO and acetonitrile were equal to or less than 0.1%.

Sequence of Cytochrome P450 3A4 (P08684 whole entry): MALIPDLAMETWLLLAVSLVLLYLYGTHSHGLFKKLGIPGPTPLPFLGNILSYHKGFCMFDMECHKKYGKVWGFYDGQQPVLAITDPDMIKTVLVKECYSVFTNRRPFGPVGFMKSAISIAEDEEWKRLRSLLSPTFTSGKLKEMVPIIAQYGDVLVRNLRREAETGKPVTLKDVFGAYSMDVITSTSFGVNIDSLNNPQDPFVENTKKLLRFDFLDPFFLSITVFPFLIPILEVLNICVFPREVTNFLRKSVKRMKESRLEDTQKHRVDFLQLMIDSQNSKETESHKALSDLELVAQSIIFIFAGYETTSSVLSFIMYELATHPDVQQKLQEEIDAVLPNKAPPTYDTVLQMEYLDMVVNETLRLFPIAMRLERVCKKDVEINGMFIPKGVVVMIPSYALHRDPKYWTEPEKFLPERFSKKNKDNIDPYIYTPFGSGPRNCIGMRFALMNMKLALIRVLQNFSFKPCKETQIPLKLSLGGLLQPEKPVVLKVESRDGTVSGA

In the case of `CC(=O)CCC(=O)Nc1ncc2cc1O[C@H](C)c1cc(F)ccc1C(=O)N(C)Cc1nn(C)c(C#N)c1-2` [US12338251, Compound 3], the IC50 is reported as 279 µM.

— BindingDB's records for patent US12338251 (Teligene US, 2025)
